Experimental data published in PMC7414031, “Correlation between hemolytic activity, cytotoxicity and systemic in vivo toxicity of synthetic antimicrobial peptides” (Scientific Reports, 2020).
≈ marks a conversion by molar mass, not a printed value. Square brackets hold non-standard residues; d marks the D form. Peptide text beside a SMILES is read from it. N(1-naphthylmethyl)Gly = O=C(O)CNCc1cccc2ccccc12; Nphe = O=C(O)CNCc1ccccc1; NBuGly = CCCCNCC(=O)O

What was measured:
in vitro [1] = type: cell-based, human; conditions: human
Experimental: (§1) The haemolytic activity of the 24 structurally related peptides (Table 1) was evaluated in erythrocytes from four different species (human, canine, bovine and rat) employing standard methodology. The subsequent release of haemoglobin was used to assess haemolytic activity as function of peptide and peptidomimetic concentration, with concentrations ranging from 0.15 to 150 µM (Presented in whole in Supplementary information Table S1–S4).
(§2) Human and rat (Sprague–Dawley) blood samples were purchased by Bioreclamation IVT (Westbury, NY, USA), collected in tubes containing heparin as anticoagulant and stored at 4 °C before use. Dog and bovine whole blood was collected from in-house animals at Zoetis Animal Health, Kalamazoo, Michigan and stored at 4 °C in tubes containing heparin as anticoagulant. 10 mL of each whole blood sample were centrifuged at 1,500 × g for 5 min and the resulting plasma fraction was removed from the samples. The pellets were washed with an equal volume (10 mL) of saline, mixing by inversion. The centrifuging and washing steps were repeated 5 times. After the last washing step, a volume of PBS was added, and the resulting samples were diluted 1:10 with PBS to yield an RBC concentration of ~ 5 × 10^8 RBC/mL. The assay was performed in a 384-well polypropylene microplate (Greiner 784201, Greiner Bio-One International, GMBH) through a Bravo Liquid Handling Platform 384 system (Agilent Technologies, Santa Clara, CA, USA) according to the previously published procedures. The compounds were tested in serial 1:1 dilutions in PBS, with final concentrations ranging from 150 to 1.2 µM. Melittin was used as reference lytic peptide. 1% TritonX100 and PBS were used as positive and negative (diluent) controls, respectively. The final concentrations were obtained by adding to the wells 7 µL of each solution, melittin or PBS, followed by 63 µL of RBCs to each well. The plate was sealed, shaken on a plate shaker for 20 s, incubated for one hour at 37 °C. Finally, it was centrifuged at 1,500 × g for 5 min at room temperature. 60 µL of supernatants were removed from all plate wells via a Bravo 384 robot and transferred to a flat-bottomed 384-well plate (Greiner UV-Star #7810801, Greiner Bio-One International, GMBH). The plate was centrifuged at 1,000 g for 1 min to remove air bubbles and optical density was measured at 405 nm using a plate reader. Percentage of haemolysis was calculated with the following equation: %haemolysis=(absorbance of test sample)-absorbance of diluent/absorbance of positive control-absorbance of diluent×100.

human erythrocytes [2] = assay: in vitro; type: cell-based; conditions: for IC10 haemolysis: human erythrocytes; for IC50: red cells of human
Experimental: as §1, §2

in vitro [3] = type: cell-based, dog; conditions: dog
Experimental: as §1, §2

canine erythrocytes = assay: in vitro; type: cell-based, dog; conditions: for IC10 haemolysis: canine erythrocytes; for IC50: red cells of canine
Experimental: as §1, §2

in vitro [4] = type: cell-based, rat (Sprague–Dawley); conditions: Sprague-Dawley, rat
Experimental: as §1, §2

rat erythrocytes = assay: in vitro; type: cell-based, rat (Sprague–Dawley); conditions: for IC10 haemolysis: rat erythrocytes; for IC50: red cells of rat
Experimental: as §1, §2

in vitro [5] = type: cell-based, bovine; conditions: bovine
Experimental: as §1, §2

[6] = tested on: Staphylococcus pseudintermedius; conditions: cited from earlier work
Staphylococcus aureus = tested on: Staphylococcus aureus; set-up: method as in PMID 30842436; conditions: cited from earlier work
Pseudomonas aeruginosa = tested on: Pseudomonas aeruginosa; set-up: method as in PMID 30842436; conditions: cited from earlier work
human erythrocytes [7] = conditions: cited from earlier work
HaCaT cells = type: cell-based, human; conditions: 1 h
Experimental: (§3) An immortalised human keratinocyte (HaCaT) cell line (Gift from David Gram Naym at Bispebjerg Hospital, Denmark), a human liver cancer cell line (HepG2; ATCC HB-8065) and a human epithelial cervical cancer cell line (HeLa; ATCC CCL-2) were cultured to ∼90% confluence after 21–25 h of growth under standard conditions (5% CO2 at 37 °C). Cells were cultured in Dulbecco’s Modified Eagle’s Medium supplemented with 10% (v/v) fetal bovine serum (FBS). All culture media were supplemented with penicillin (100 IU/mL) and streptomycin (100 μg/mL). All cell media and supplements were obtained from Sigma-Aldrich (St. Louis, MO, United States). The 96-well plates were supplied by Corning Costar (Sigma-Aldrich, Brøndby, Denmark). Cell viability assessment was performed on cell monolayers grown to ∼90% confluence in 96-well plates by using the MTS/PMS assay as previously described. Briefly, the adhered cells were washed with PBS solution (37 °C) (ThermoFisher Scientific, Roskilde) and exposed for 1 h at 37 °C to 100 μL of peptides dissolved in the medium also used for culturing of the cell line (at concentrations in the range 0–1,000 μg/mL). The cells were subsequently washed twice with 37 °C PBS and then 100 μL of an MTS/PMS solution in media, consisting of 240 μg/mL MTS (Promega, Madison, WI, United States) and 2.4 mg/mL PMS (Promega, Madison, WI, United States), was added to the cells, which then were incubated for 1 h at 37 °C protected from light. A plate reader (SpectraMax i3X; Molecular devices, San Jose, CA) was used to measure the absorbance at 492 nm. The relative viability was calculated by using 0.2% (w/v) sodium dodecyl sulfate (SDS) as the positive control, while cells exposed to medium without test compound were used as the negative control.

HeLa cells = type: cell-based, human; conditions: 1 h
Experimental: as §3

CC(C)C[C@@H](NC(=O)[C@@H](Cc1cccc2ccccc12)NC(=O)[C@@H](Cc1ccccc1)NC(=O)[C@H](N)Cc1cccc2ccccc12)C(=O)N[C@@H](CCCCN)C(=O)N[C@@H](CCCCN)C(=O)N[C@@H](CCCCN)C(N)=O [Compound 9, (1-Nal)Ala-Phe-(1-Nal)Ala-Leu-Lys-Lys-Lys] (HELM PEPTIDE1{[N[C@H](Cc1cccc2ccccc12)C(=O)[*:2]].[dF].[O=C([C@@H](Cc1cccc2ccccc12)N[*:1])[*:2]].[dL].K.K.K.[am]}$$$$V2.0) gave a hemolysis at 1 h, 150 µM (in vitro [1]) of 30.8%, an IC10 haemolysis (human erythrocytes [2]) of 104.1 µM and an IC50 (human erythrocytes [2]) of over 150 µM. The hemolysis at 1 h, 150 µM (in vitro [3]) was 25.5%, the IC10 haemolysis (canine erythrocytes) was 65.0 µM and the IC50 (canine erythrocytes) was over 150 µM. It also gave a hemolysis at 1 h, 150 µM (in vitro [4]) of under 8%, an IC10 haemolysis (rat erythrocytes) of over 150 µM and an IC50 (rat erythrocytes) of over 150 µM. The hemolysis at 1 h, 150 µM (in vitro [5]) was under 8%, the “MIC against Staphylococcus pseudintermedius” value [6] was 16 µg/mL (≈ 15.1 µM) and the “MIC against Staphylococcus aureus” value (Staphylococcus aureus) was 32 µg/mL (≈ 30.3 µM). The “MIC against Pseudomonas aeruginosa” value (Pseudomonas aeruginosa) was 32 µg/mL (≈ 30.3 µM) and the “Previously reported haemolytic activity against human erythrocytes (in words)” value (human erythrocytes [7]) was “no haemolytic activity”.

In the case of CCCCN(CC(=O)N(CC(=O)N(CC(=O)N(CC(N)=O)Cc1cccc2ccccc12)Cc1ccccc1)Cc1cccc2ccccc12)C(=O)[C@H](CCCCN)NC(=O)[C@H](CCCCN)NC(=O)[C@@H](N)CCCCN [Compound 15, Lys-Lys-Lys-(N-Bu)Gly-(N1-Nal)Gly-(N-Phe)Gly-(N1-Nal)Gly] (H-KKK[NBuGly][N(1-naphthylmethyl)Gly][Nphe][N(1-naphthylmethyl)Gly]-NH2), the hemolysis at 1 h, 150 µM (in vitro [1]) is reported as 94.2%, the “Haemolysis at 80 µM (in words)” value (human erythrocytes [2]) is reported as “near total haemolysis” and the IC10 haemolysis (human erythrocytes [2]) is reported as 8.4 µM. The IC50 (human erythrocytes [2]) was 41.7 µM, the hemolysis at 1 h, 150 µM (in vitro [3]) was 87.1% and the “Haemolysis at 80 µM (in words)” value (canine erythrocytes) was “near total haemolysis”. For the same molecule, the IC10 haemolysis (canine erythrocytes) was 11.6 µM, the IC50 (canine erythrocytes) was 65.7 µM and the hemolysis at 1 h, 150 µM (in vitro [4]) was 99.5%. For the same molecule, the “Haemolysis at 80 µM (in words)” value (rat erythrocytes) was “near total haemolysis”, the IC10 haemolysis (rat erythrocytes) was 35.61 µM and the IC50 (rat erythrocytes) was 47.6 µM. The hemolysis at 1 h, 150 µM (in vitro [5]) was under 8%, the IC50 (HaCaT cells) was 297 µM and the IC50 (HeLa cells) was 394 µM. The “S.p. MIC” value ([6]; Staphylococcus pseudintermedius, Table S5, in µM) was 3.8 µM, the “MIC against Staphylococcus pseudintermedius” value [6] was 4 µg/mL (≈ 3.79 µM) and the “MIC against Staphylococcus aureus” value (Staphylococcus aureus) was 16 µg/mL (≈ 15.1 µM). The “MIC against Pseudomonas aeruginosa” value (Pseudomonas aeruginosa) was 32 µg/mL (≈ 30.3 µM).

For CCCC[C@H](NC(=O)[C@H](CCCCN)NC(=O)[C@H](CCCCN)NC(=O)[C@@H](N)CCCCN)C(=O)N[C@@H](Cc1ccc2ccccc2c1)C(=O)N[C@@H](Cc1ccccc1)C(=O)N[C@@H](Cc1ccc2ccccc2c1)C(N)=O [Compound 18, Lys-Lys-Lys-Nle-(2-Nal)Ala-Phe-(2-Nal)Ala] (HELM PEPTIDE1{K.K.K.[Nle].[O=C([C@H](Cc1ccc2ccccc2c1)N[*:1])[*:2]].F.[O=C([C@H](Cc1ccc2ccccc2c1)N[*:1])[*:2]].[am]}$$$$V2.0), the hemolysis at 1 h, 150 µM (in vitro [1]) was 58.8%, the “Haemolysis at 80 µM (in words)” value (human erythrocytes [2]) was “near total haemolysis” and the IC10 haemolysis (human erythrocytes [2]) was 18.7 µM. The IC50 (human erythrocytes [2]) was 95.6 µM, the hemolysis at 1 h, 150 µM (in vitro [3]) was 101% and the “Haemolysis at 80 µM (in words)” value (canine erythrocytes) was “near total haemolysis”. It also gave an IC10 haemolysis (canine erythrocytes) of 21.4 µM, an IC50 (canine erythrocytes) of 42.7 µM and a hemolysis at 1 h, 150 µM (in vitro [4]) of 98.6%. The “Haemolysis at 80 µM (in words)” value (rat erythrocytes) was “near total haemolysis”, the IC10 haemolysis (rat erythrocytes) was 64.4 µM and the IC50 (rat erythrocytes) was 87.8 µM. The hemolysis at 1 h, 150 µM (in vitro [5]) was under 8%, the “MIC against Staphylococcus pseudintermedius” value [6] was 2 to 4 µg/mL and the “MIC against Staphylococcus aureus” value (Staphylococcus aureus) was 32 to 64 µg/mL. The “MIC against Pseudomonas aeruginosa” value (Pseudomonas aeruginosa) was 8 µg/mL (≈ 7.57 µM) and the “Previously reported haemolytic activity against human erythrocytes (in words)” value (human erythrocytes [7]) was “high in vitro haemolytic activity”.
